{"source": "patent US9303069B2", "about": "“Peptides for treating cancer” (University of Mississippi Medical Center, priority 2014, dated 2016)", "key": {"caspase 3/7": {"test_system": "caspase 3/7", "experiment": "Cleaved / activated caspase 3/7 in MDA-MB-231 and MDA-MB-468 cells", "type": "cell-based, human", "conditions": "increasing concentrations of IRIS peptide", "experimental": "To assess whether BRCA1-IRIS inactivation can sensitize TNBC cells to lower paclitaxel concentrations, MDA-MB-231 and MDA-MB-468 were exposed to 1 μM of paclitaxel 0, 1, 2, 5 and 10 μM of IRIS peptide for 24 hours. […] Perhaps more importantly, in the presence of only 1 μM of paclitaxel, the IC50 of IRIS peptide was reduced to <2 μM in both cell lines (dark color lines in FIG. 85)."}, "BRCA1-IRIS and survivin": {"test_system": "BRCA1-IRIS and survivin", "experiment": "IHC of SKOV3 tumors for BRCA1-IRIS and survivin", "type": "in vivo, mice", "conditions": "SKOV3 tumors after treatment", "text": "Isolated tumors were mounted, sectioned and IHC stained for BRCA1-IRIS and survivin. […] It is possible that SKOV3 contain a heterogeneous population of cells that differ in their BRCA1-IRIS expression and thus that the remaining tumors are from those expressing no or low BRCA1-IRIS.\nImmunohistochemistry (IHC). Ovarian tissue microarrays comprised of normal, cancer and metastatic tissues were purchased from US Biomax, Inc. Paraffin-embedded tissue sections were de-waxed in xylene and rehydrated in alcohol. Antigen-retrieval for FOXO3a and survivin was performed by heating the slides in citrate buffer (10 μM, pH 6.0) using microwave for 10 minutes. Slides were then cooled to room temperature (RT) and washed with water followed by PBS for 15 minutes each. Antigen-retrieval for BRCA1-IRIS was performed by incubating the slides in pepsin (10 μM) for 20 minutes at 37° C. Endogenous peroxidase activity was suppressed by treating the slides with 3% hydrogen peroxide for 10 minutes. After washing steps slides were incubated for 1 hour at room temperature with antibodies to human FOXO3a (Cell Signaling Technology, USA 1:400) and survivin (Cell Signaling Technology, USA 1:400). For BRCA1-IRIS staining, slides were incubated overnight at 4° C. with monoclonal BRCA1-IRIS antibody at a 1:75 dilution. […]"}, "[1]": {"test_system": "MDA-MB-231 and MDA-MB-468 cells", "experiment": "Invasion assay, matrigel coated Boyden chambers, TNBC cells", "type": "cell-based, human", "conditions": "peptide added every 3rd day", "text": "To study invasion in vitro, matrigel coated Boyden chambers were layered with MDA-MB-231 or MDA-MB-468 cells expressing shcontrol of shIRIS expressing cells, also parental cells were layered and grown in the presence of scrambled or IRIS peptide (added every 3rd day). To migrate to the lower side of the chamber or the bottom well, cells must first digest the matrigel. Four days later, a significant number of control treated cells invaded the matrigel and migrated to the lower side of the chambers (FIG. 95, 1st column and FIG. 96) and the bottom well (FIG. 97 and FIG. 98, 1st column) in both cell lines. […] Quantitatively, BRCA1-IRIS silencing or inactivation reduced the invasive/migratory ability of these TNBC cells by ˜100 fold (FIG. 96 and FIG. 97).\nCell Invasion assay. Growth reduced BD Matrigel™ invasion chamber (24 well plate, 8.0 μm, BD BioCoat™) was used to study the invasion ability of control shRNA and BRCA1-IRIS shRNA expressing MDAMB231 cells. Cells (5×10^3) in complete medium (500 μl) were seeded on the upper compartment, and the lower compartment was filled with 750 μl of complete growth medium. […] Cells invaded into the lower side of the membrane as well as those migrate to the bottom well were stained with Crystal Violet, visualized under microscope, photographed and counted. […]"}, "AKT, ERK, MDM2 and Skp2": {"test_system": "AKT, ERK, MDM2 and Skp2", "experiment": "Signalling proteins in SKOV3 and OVCAR3 cells (Western)", "type": "cell-based, human", "text": "Finally, to further dissect the IRIS-induced cisplatin resistance pathway, PI3′K/AKT (using […]) and ERK (using PD98059) were inactivated and compared to IRIS peptide in two aggressive ovarian cancer cell lines. […] Phosphorylation of cytoplasmic or nuclear FOXO3a by p-AKT and/or p-ERK promotes MDM2 binding and priming ubiquitylation, which is then followed by Skp2 branching ubiquitylation and FOXO3a degradation (Huang and Tindall, 2011). FOXO was less phosphorylated in LY, PD as well as IRIS-silenced/inactivated SKOV3 or OVCAR3 cells (FIG. 34). […] Consistently, in BRCA1-IRIS silenced/inactivated cells accumulation of unphosphorylated/stabilized FOXO3a was detected. In contrast, FOXO3a was still decreased to different degrees in LY or PD treated cells (FIG. 34)."}, "SKOV3 tumors": {"test_system": "SKOV3 tumors", "experiment": "In vivo efficacy on established SKOV3 tumors", "design": "species or system mice", "conditions": "day 16; cisplatin 5 mg/kg i.p., IRIS peptide 10 mg/kg i.t., every third day, four times", "experimental": "Further, to determine whether IRIS peptide could have any efficacy in vivo and/or whether it sensitizes ovarian tumors to low, clinically relevant concentrations of cisplatin, four sets of nude mice (n=6 each) were subcutaneously injected with SKOV3 cells. Ten days later, when tumors were ˜250 mm^3 in volume, one group was treated with controls (i.e. DMSO delivered i.p. and scrambled peptide delivered directly into the tumors, i.t.), a second group was treated with cisplatin (5 mg/kg, delivered i.p.), a third group was treated with IRIS peptide (10 mg/kg, injected i.t.), and a fourth group was treated with both. Treatments were delivered every third day for a total of four times. For the next 16 days, tumors were measured daily with a caliper. Mice were then sacrificed, and their tumors or their remnants were taken.\nEfficacy of BRCA1-IRIS inhibitory peptide, in vivo. Six to eight week old female athymic SCID mice were injected subcutaneously with 2.5×10^6 SKOV3 cells in the flank region. Their respective tumor growth was measured with a caliper. When the tumor volume reached 250 mm^3, mice were randomly grouped into four groups. One group (control) was treated with scrambled peptide (10 mg/kg) and DMSO. A second was treated with BRCA1-IRIS inhibitory peptide (10 mg/kg, body weight). […] Change in tumor volume was measured to monitor the efficacy of the treatment. […]"}}, "note": "Entries after “also recorded” stand apart in the source; their conditions may differ. Ends that are not written are not given here.", "data": [{"sequence": "RRIRPRPPRLPRPRPRPLPFPRPGIGTRFLCLPQSIYRSELNVYAFGEHILQISKYS [IRIS peptide]", "values": [{"measurement": "cleaved / activated caspase 3/7", "setting": "caspase 3/7", "result": "gradual increase in activated caspase 3/7; also recorded: increase cleaved caspase 3/7 in both cell lines"}, {"measurement": "BRCA1-IRIS and survivin staining of remaining tumor", "setting": "BRCA1-IRIS and survivin", "result": "almost complete absence of BRCA1-IRIS and survivin staining"}, {"measurement": "reduction of invasive/migratory ability", "setting": "[1]", "result": "~100", "unit": "fold"}, {"measurement": "AKT and ERK expression and activation", "setting": "AKT, ERK, MDM2 and Skp2", "result": "decreased expression and inactivated AKT and ERK"}, {"measurement": "reduction in tumor size", "setting": "SKOV3 tumors", "result": "~50", "unit": "%"}]}]}
